The source of these data is patent US9511074B2, “Methods of treating disorders associated with protein polymerization” (UNIVERSITY OF PITTSBURGH—OF THE COMMONWEALTH SYSTEM OF …, priority 2009, dated 2016).

Assay [1] has as its system ATZ in wild-type mouse embryonic fibroblast (MEF) cell line. The assay is described as follows: ATZ levels in wild-type (Atg5+/+) MEF cell line. Type of assay: cell-based, murine. The text has this: Cell Lines The human epidermal HeLa cell line with doxycycline-regulated expression of ATZ (HTO/Z) has been described previously (1). HTO/M and HTO/Saar are HeLa cell lines with doxycycline-regulated expression of wild type AT and the AT Saar variant, respectively (1). A murine embryonic fibroblast cell line (MEF) with targeted disruption of Atg5 (2) was engineered for stable expression of ATZ using the previously described pRc/RSV-ATZ expression plasmid (3). A wild type MEF cell line was also engineered for stable expression of ATZ in the same way to serve as control. For experiments with CBZ, the inducible cell lines were cultured in the absence of doxycycline for at least 4 weeks for maximal expression of AT. The cells were then subcultured into separate monolayers in fresh complete growth medium and incubated for 48 hours in the absence or presence of CBZ or rapamycin (RAP). CBZ or RAP were added to the growth medium. The duration of incubation with CBZ was determined to be optimal at 48 hours based on experiments in which the duration was varied from 12 to 72 hours. Doses of CBZ were based on previous studies of its effects in cell lines (5,6). […]
For immunoblot analysis to detect AT, GAPDH or LC3, cells were lysed in 50 mM Tris-HCl, 150 mM NaCl, 1% NP-40, pH 8.0. Protein levels were quantified using the BCA protein assay (Pierce Biotechnology, Rockford, Ill.). […]

For another assay, the system named is ATZ in the liver. The assay can be described thus: Hepatic load of ATZ in vivo in PiZ×GFP-LC3 mice (immunoblot, globule histology). Further details: species or system mouse. The text has this:
Transgenic Mice PiZ mice that have been bred into the C57/BL6 background have been described previously (1). For the second and third series of experiments with CBZ we used PiZ mice that were re-derived onto the FVB/N background for a move into a new animal facility. The transgene that was used to generate the PiZ mouse is a genomic fragment of DNA that contains the coding regions of the ATZ gene together with introns and ˜2 kilobases of upstream and downstream flanking regions (10). […] In this perspective it is not an exact phenocopy of the classical form of AT deficiency. In particular it cannot be a model for the loss-of-function mechanisms associated with the classical form of AT deficiency. It is known to have abundant expression of ATZ in hepatocytes and other cell types that express ATZ in humans (11). In the liver there are abundant ATZ-containing intrahepatocytic globules and inflammation that is characteristic of what is seen in the human liver (11,12). […] Taken together, these observations indicate that the PiZ mouse is an appropriate model for the gain-of-toxic function mechanism that is responsible for liver damage in the classical form of AT deficiency. Indeed, the fact that these mice are endowed with endogenous AT function and therein normal levels of AT in the serum and body fluids make them an even more ‘pure’ model for liver damage by gain-of-toxic function. PiZ×GFP-LC3 mice, which generated green fluorescent autophagosomes, have been described previously (2). PiZ×IKKβ.hep were generated by mating of PiZ to IKKβ.hep, which has conditional hepatocyte-specific disruption of NF.B activation (M. Karin, 17). There is increased injury in the liver of these mice as evidenced by the hepatic hydroxyproline content, 153.3% of that in the PiZ mouse (FIG. 7).
Histology Sections of liver tissue were stained with hematoxylin and eosin, PAS, PAS after diastase treatment, TUNEL, PCNA, Ki67 and Sirius Red using standard techniques (18). Previous methods for staining with antibody to smooth muscle actin were used (19). Each was examined by the pathologist (GM) who was completely blinded to the experimental protocol. […] The number of inflammatory nodules, AT-containing globules and autophagosomes were each quantified blindly by counting cells in 6 microscopic fields of 10 different sections for each liver. The number of nuclei, as determined by Hoechst staining, was used to exclude the possibility that different numbers of cells were counted in liver sections from mice treated with CBZ as compared to controls. Hepatic hydroxyproline concentration was determined by a well-established protocol (20,21). […]
For immunoblot on liver, the liver was snap frozen in liquid nitrogen and stored at −80° C. […] Total protein concentration was measured by BCA assay (Pierce). […]
On the technique in general: A western blot detects proteins with antibodies after separation by electrophoresis.

Setting [2] is: PiZ×GFP-LC3 mice, 250 mg kg-1 day-1 for 2 weeks by gavage.

With `NC(=O)N1c2ccccc2C=Cc2ccccc21` [CBZ, 5H-dibenz [b,f]azepine-5-carboxamide], the “levels of insoluble ATZ” value in assay [1] (wild-type MEF cell line) is given as “decrease”. Besides, the “levels of soluble ATZ” value in assay [1] (wild-type MEF cells) is on record as “decrease”. Besides, in the assay with ATZ in the liver (setting [2]), the “intrahepatocytic ATZ-containing globules” value was “marked decrease”; the “total, insoluble, and soluble ATZ in the liver” value was “marked decrease”. In addition, in the assay on ATZ in the liver (quantitative morphometry, 250 mg kg-1 day-1 for 2 weeks, P<0.001), the “decrease in globule-containing hepatocytes, factor” value is 3.36.
